# Assay results published in publication PMC7542351, “Construction of a new T7 promoter compatible Escherichia coli Nissle 1917 strain for recombinant production of heme-dependent proteins” (Microbial Cell Factories, 2020).
# Molecular target: T1, Cph1 (Synechocystis sp. PCC 6803, UniProt Q55168)
# T1 construct: His6 tag; ~80 kDa; pET-cph1; co-produced with HO1 and PcyA in E. coli; cell-free lysate
# Assay: red/far-red induced difference spectroscopy of holo-phytochrome
# Assay type: biochemical
# Conditions: cell-free lysate; pH 8.0, 25 °C; 630 nm / 730 nm light; PCB made in vivo by co-expressed HO1 and PcyA, and 40 µM PCB added; covalent
# T1 sequence (Q55168 whole entry): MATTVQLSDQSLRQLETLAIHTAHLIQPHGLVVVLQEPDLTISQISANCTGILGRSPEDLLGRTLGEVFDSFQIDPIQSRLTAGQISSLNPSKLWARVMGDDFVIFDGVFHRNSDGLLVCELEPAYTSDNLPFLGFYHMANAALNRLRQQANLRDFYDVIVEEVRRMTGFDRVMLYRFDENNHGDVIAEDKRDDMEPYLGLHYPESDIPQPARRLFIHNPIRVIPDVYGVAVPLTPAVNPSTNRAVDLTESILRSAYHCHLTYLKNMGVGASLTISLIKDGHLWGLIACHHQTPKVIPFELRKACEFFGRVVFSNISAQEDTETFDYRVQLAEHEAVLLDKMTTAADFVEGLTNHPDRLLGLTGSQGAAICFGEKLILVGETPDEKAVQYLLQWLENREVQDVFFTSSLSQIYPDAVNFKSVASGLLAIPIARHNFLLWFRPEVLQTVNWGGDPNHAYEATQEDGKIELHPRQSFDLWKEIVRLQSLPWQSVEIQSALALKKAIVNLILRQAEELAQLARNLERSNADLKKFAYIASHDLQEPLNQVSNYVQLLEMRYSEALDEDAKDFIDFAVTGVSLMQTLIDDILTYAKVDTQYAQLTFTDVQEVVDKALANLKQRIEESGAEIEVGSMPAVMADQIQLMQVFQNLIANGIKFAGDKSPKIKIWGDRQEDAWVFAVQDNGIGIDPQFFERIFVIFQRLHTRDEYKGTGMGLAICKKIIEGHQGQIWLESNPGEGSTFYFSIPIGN
smiles,measurement,value
CC=C1C(=Cc2[nH]c(C=C3N=C(C=C4NC(=O)C(CC)=C4C)C(C)=C3CCC(=O)O)c(CCC(=O)O)c2C)NC(=O)C1C (stereo not shown) [phycocyanobilin],red/far-red induced difference spectroscopy of holo-phytochrome,Comparison of difference spectra before and after incubation with PCB indicated a higher saturation
